Laboratory results published in the NIST ThermoML archive (doi:10.1021/je7002447).

How the values were obtained:
[1] = 298.15 K; 101.33 kPa; Liquid
[2] = excess molar enthalpy (molar enthalpy of mixing); xn = mol fraction of the nth substance listed; settings: 298.15 K, 101.3 kPa, Liquid, Flow calorimetry

ClCCc1ccccc1 [(2-chloroethyl)benzene]
Settings	mass density [kg/m3]
[1]	1066.91

ClCCc1ccccc1 [(2-chloroethyl)benzene] + CCCCc1ccccc1
[2]
Settings	excess molar enthalpy [kcal/mol]
x1 = 0.1063	0.0238
x1 = 0.1295	0.028
x1 = 0.1655	0.0343
x1 = 0.2293	0.0443
x1 = 0.3085	0.052
x1 = 0.373	0.0564
x1 = 0.4424	0.0604
x1 = 0.4716	0.0607
x1 = 0.5434	0.061
x1 = 0.6134	0.0592
x1 = 0.7041	0.054
x1 = 0.7604	0.0477
x1 = 0.8264	0.0382
x1 = 0.8639	0.0315
x1 = 0.9225	0.0195

ClCCc1ccccc1 [(2-chloroethyl)benzene] + CCCc1ccccc1
[2]
Settings	excess molar enthalpy [kcal/mol]
x1 = 0.1173	0.0173
x1 = 0.1375	0.0187
x1 = 0.1662	0.0221
x1 = 0.2099	0.0266
x1 = 0.285	0.033
x1 = 0.347	0.0364
x1 = 0.4147	0.0393
x1 = 0.4436	0.0405
x1 = 0.5152	0.0411
x1 = 0.5863	0.0404
x1 = 0.6145	0.0388
x1 = 0.6801	0.0369
x1 = 0.7392	0.0319
x1 = 0.8096	0.0264
x1 = 0.85	0.0222
x1 = 0.914	0.0138

ClCCc1ccccc1 [(2-chloroethyl)benzene] + CCc1ccccc1
[2]
Settings	excess molar enthalpy [kcal/mol]
x1 = 0.105	0.00798
x1 = 0.19	0.012
x1 = 0.2603	0.0148
x1 = 0.3194	0.0181
x1 = 0.3849	0.0191
x1 = 0.4841	0.0202
x1 = 0.5847	0.0193
x1 = 0.6524	0.0184
x1 = 0.7379	0.0159
x1 = 0.7897	0.0144
x1 = 0.8825	0.00832
x1 = 0.9037	0.00641

ClCCc1ccccc1 [(2-chloroethyl)benzene] + Cc1ccccc1
[2]
Settings	excess molar enthalpy [kcal/mol]
x1 = 0.075	-7.17e-05
x1 = 0.092	0
x1 = 0.1686	0.000191
x1 = 0.2332	0.000502
x1 = 0.2885	0.000645
x1 = 0.3782	0.0011
x1 = 0.4478	0.00131
x1 = 0.5195	0.00167
x1 = 0.5488	0.00177
x1 = 0.6186	0.00189
x1 = 0.6838	0.00184
x1 = 0.7643	0.00174
x1 = 0.8122	0.00163
x1 = 0.8439	0.00146
x1 = 0.8902	0.00115
x1 = 0.9068	0.00098

ClCCc1ccccc1 [(2-chloroethyl)benzene] + c1ccccc1
[2]
Settings	excess molar enthalpy [kcal/mol]
x1 = 0.1016	0.00739
x1 = 0.145	0.00896
x1 = 0.2028	0.0105
x1 = 0.3115	0.0114
x1 = 0.4042	0.0112
x1 = 0.5044	0.00999
x1 = 0.5757	0.00856
x1 = 0.6706	0.00686
x1 = 0.7308	0.00581
x1 = 0.8028	0.00471
x1 = 0.8444	0.00354

ClCCCc1ccccc1 [(3-chloropropyl)benzene]
Settings	mass density [kg/m3]
[1]	1041.84

ClCCCc1ccccc1 [(3-chloropropyl)benzene] + CCCCc1ccccc1
[2]
Settings	excess molar enthalpy [kcal/mol]
x1 = 0.1167	0.00734
x1 = 0.209	0.0142
x1 = 0.2605	0.0167
x1 = 0.3458	0.0197
x1 = 0.4134	0.0216
x1 = 0.5138	0.0227
x1 = 0.5849	0.0223
x1 = 0.6132	0.0214
x1 = 0.6789	0.0193
x1 = 0.7381	0.0172
x1 = 0.8087	0.0137
x1 = 0.9136	0.0075

ClCCCc1ccccc1 [(3-chloropropyl)benzene] + CCCc1ccccc1
[2]
Settings	excess molar enthalpy [kcal/mol]
x1 = 0.0863	0.000884
x1 = 0.136	0.00158
x1 = 0.191	0.0022
x1 = 0.2394	0.00277
x1 = 0.3207	0.00327
x1 = 0.3863	0.00392
x1 = 0.4145	0.00411
x1 = 0.4856	0.00445
x1 = 0.5573	0.00466
x1 = 0.5861	0.00464
x1 = 0.6538	0.00464
x1 = 0.7157	0.00423
x1 = 0.7391	0.00428
x1 = 0.7906	0.00378
x1 = 0.8343	0.00311
x1 = 0.9042	0.00215
x1 = 0.9189	0.00191

ClCCCc1ccccc1 [(3-chloropropyl)benzene] + CCc1ccccc1
[2]
Settings	excess molar enthalpy [kcal/mol]
x1 = 0.0766	-0.00471
x1 = 0.1214	-0.00691
x1 = 0.1717	-0.00891
x1 = 0.2372	-0.0103
x1 = 0.2931	-0.0111
x1 = 0.3835	-0.012
x1 = 0.4534	-0.012
x1 = 0.5251	-0.0117
x1 = 0.5544	-0.0114
x1 = 0.6239	-0.0103
x1 = 0.7133	-0.00832
x1 = 0.7684	-0.00719
x1 = 0.8327	-0.00519
x1 = 0.8924	-0.00335

ClCCCc1ccccc1 [(3-chloropropyl)benzene] + Cc1ccccc1
[2]
Settings	excess molar enthalpy [kcal/mol]
x1 = 0.1072	-0.0125
x1 = 0.1526	-0.0165
x1 = 0.1936	-0.0195
x1 = 0.2648	-0.0232
x1 = 0.3244	-0.0253
x1 = 0.3507	-0.0253
x1 = 0.4187	-0.0272
x1 = 0.4899	-0.0259
x1 = 0.5193	-0.0255
x1 = 0.5903	-0.0243
x1 = 0.6576	-0.0218
x1 = 0.6836	-0.0205
x1 = 0.7423	-0.018
x1 = 0.8121	-0.0136
x1 = 0.8781	-0.00882

ClCCCc1ccccc1 [(3-chloropropyl)benzene] + c1ccccc1
[2]
Settings	excess molar enthalpy [kcal/mol]
x1 = 0.0913	-0.00229
x1 = 0.1843	-0.00478
x1 = 0.2316	-0.00547
x1 = 0.3113	-0.00717
x1 = 0.376	-0.00822
x1 = 0.4455	-0.00868
x1 = 0.5466	-0.00868
x1 = 0.6164	-0.0082
x1 = 0.7068	-0.00705
x1 = 0.7834	-0.00569
x1 = 0.8282	-0.00476
x1 = 0.8577	-0.00416

ClCc1ccccc1 [(chloromethyl)benzene]
Settings	mass density [kg/m3]
[1]	1094.82

ClCc1ccccc1 [(chloromethyl)benzene] + CCCCc1ccccc1
[2]
Settings	excess molar enthalpy [kcal/mol]
x1 = 0.1194	0.033
x1 = 0.145	0.0402
x1 = 0.2028	0.0481
x1 = 0.2532	0.0596
x1 = 0.3114	0.0663
x1 = 0.4041	0.073
x1 = 0.5043	0.0762
x1 = 0.5756	0.0752
x1 = 0.6439	0.0712
x1 = 0.7307	0.0619
x1 = 0.7834	0.0522
x1 = 0.8444	0.0413
x1 = 0.8906	0.0294
x1 = 0.9313	0.0204

ClCc1ccccc1 [(chloromethyl)benzene] + CCCc1ccccc1
[2]
Settings	excess molar enthalpy [kcal/mol]
x1 = 0.1315	0.0266
x1 = 0.2325	0.038
x1 = 0.3124	0.0468
x1 = 0.3772	0.0499
x1 = 0.4468	0.0527
x1 = 0.5478	0.0541
x1 = 0.645	0.0484
x1 = 0.7079	0.0443
x1 = 0.7842	0.0344
x1 = 0.8289	0.0245
x1 = 0.8791	0.0204
x1 = 0.9065	0.0154

ClCc1ccccc1 [(chloromethyl)benzene] + CCc1ccccc1
[2]
Settings	excess molar enthalpy [kcal/mol]
x1 = 0.0962	0.0125
x1 = 0.1664	0.0181
x1 = 0.2102	0.0209
x1 = 0.2853	0.0242
x1 = 0.4151	0.0281
x1 = 0.5156	0.0284
x1 = 0.5866	0.0278
x1 = 0.6804	0.025
x1 = 0.7395	0.022
x1 = 0.8098	0.018
x1 = 0.8646	0.0136
x1 = 0.8949	0.00999

ClCc1ccccc1 [(chloromethyl)benzene] + Cc1ccccc1
[2]
Settings	excess molar enthalpy [kcal/mol]
x1 = 0.1036	0.00576
x1 = 0.1877	0.00925
x1 = 0.2574	0.0113
x1 = 0.3161	0.0128
x1 = 0.3813	0.014
x1 = 0.4803	0.0143
x1 = 0.581	0.0133
x1 = 0.649	0.0124
x1 = 0.735	0.0109
x1 = 0.7871	0.00944
x1 = 0.8809	0.00571
x1 = 0.9024	0.00511

ClCc1ccccc1 [(chloromethyl)benzene] + Clc1ccccc1
[2]
Settings	excess molar enthalpy [kcal/mol]
x2 = 0.1118	0.0144
x2 = 0.2012	0.0215
x2 = 0.2742	0.0245
x2 = 0.335	0.0271
x2 = 0.4304	0.0287
x2 = 0.5312	0.0272
x2 = 0.6018	0.0253
x2 = 0.6939	0.022
x2 = 0.7514	0.0187
x2 = 0.8193	0.015
x2 = 0.858	0.0123

c1ccccc1 [benzene]
Settings	mass density [kg/m3]
[1]	873.58

CCCCc1ccccc1 [butylbenzene]
Settings	mass density [kg/m3]
[1]	856.29

CCCCc1ccccc1 [butylbenzene] + Clc1ccccc1
[2]
Settings	excess molar enthalpy [kcal/mol]
x2 = 0.133	-0.00973
x2 = 0.1609	-0.0115
x2 = 0.2036	-0.0139
x2 = 0.2772	-0.0177
x2 = 0.3383	-0.0199
x2 = 0.4341	-0.0219
x2 = 0.535	-0.0209
x2 = 0.6054	-0.0194
x2 = 0.6971	-0.0164
x2 = 0.8036	-0.0133
x2 = 0.902	-0.00822

Clc1ccccc1 [chlorobenzene]
Settings	mass density [kg/m3]
[1]	1101.17

Clc1ccccc1 [chlorobenzene] + CCc1ccccc1
[2]
Settings	excess molar enthalpy [kcal/mol]
x1 = 0.1075	-0.0131
x1 = 0.1308	-0.0157
x1 = 0.1671	-0.0186
x1 = 0.2864	-0.0276
x1 = 0.3111	-0.029
x1 = 0.4453	-0.0335
x1 = 0.4745	-0.0346
x1 = 0.5463	-0.0341
x1 = 0.6436	-0.0301
x1 = 0.7625	-0.0261
x1 = 0.8784	-0.015
x1 = 0.9233	-0.00956

Clc1ccccc1 [chlorobenzene] + Cc1ccccc1
[2]
Settings	excess molar enthalpy [kcal/mol]
x1 = 0.1156	-0.0126
x1 = 0.2072	-0.0198
x1 = 0.2584	-0.0226
x1 = 0.3433	-0.0261
x1 = 0.4107	-0.0272
x1 = 0.5111	-0.0274
x1 = 0.6106	-0.0256
x1 = 0.6765	-0.023
x1 = 0.807	-0.0161
x1 = 0.9127	-0.00798

Clc1ccccc1 [chlorobenzene] + c1ccccc1
[2]
Settings	excess molar enthalpy [kcal/mol]
x1 = 0.0804	-0.000502
x1 = 0.1272	-0.000669
x1 = 0.1794	-0.000932
x1 = 0.2258	-0.0011
x1 = 0.3043	-0.00122
x1 = 0.3684	-0.00131
x1 = 0.3962	-0.00139
x1 = 0.4666	-0.00136
x1 = 0.5384	-0.00129
x1 = 0.5675	-0.00131
x1 = 0.6363	-0.00117
x1 = 0.6999	-0.001
x1 = 0.7777	-0.00086
x1 = 0.8235	-0.000741
x1 = 0.8974	-0.000406

CCc1ccccc1 [ethylbenzene]
Settings	mass density [kg/m3]
[1]	862.55

CCCc1ccccc1 [propylbenzene]
Settings	mass density [kg/m3]
[1]	857.62

CCCc1ccccc1 [propylbenzene] + Clc1ccccc1
[2]
Settings	excess molar enthalpy [kcal/mol]
x2 = 0.1205	-0.0121
x2 = 0.1859	-0.0162
x2 = 0.2551	-0.0211
x2 = 0.3394	-0.0244
x2 = 0.4066	-0.0261
x2 = 0.4774	-0.0277
x2 = 0.5781	-0.0261
x2 = 0.6727	-0.0241
x2 = 0.7851	-0.0189
x2 = 0.8796	-0.0118
x2 = 0.9164	-0.00782

Cc1ccccc1 [toluene]
Settings	mass density [kg/m3]
[1]	862.19
